The assay relates to human cancer cell lines. As to the kind of experiment: In vitro cytotoxicity screening, human cancer cell lines in general. It is filed as cell-based. Conditions: all the cell lines used, read-out: growth inhibition of human cancer cell lines. As to the method: Cells at sub confluent stage were harvested from the flask by treatment with trypsin (0.5% in PBS containing 0.02% EDTA) for determination of cytotoxicity. Cells with viability of more than 98%, as determined by trypan blue, were used for assay. The cell suspensions of required cell density were prepared in complete growth medium with gentamycin (50 μg/ml) for determination of cytotoxicity. The cells (100 μl/well) were inoculated in 96 well tissue culture plates. The cells were allowed to grow for 24 hrs temperature of 37° C. and in a humidified atmosphere of 5% CO2 in air. Stock solution of (20 mM) of test material was prepared in DMSO. The stock solution was serially diluted with complete growth medium containing 50 μg/ml of gentamycin to obtain […] working test solutions of 1., 2, 5, 10, 50 and 100 μM. In vitro cytotoxicity (IC50 value) against human cancer cell lines was determined using sulphodamine B dye.^5,6 The results are summarized in table 4.
The human Cancer Cell lines were obtained either from National Center for Cell Science, Pune, India or National Cancer Institute, Frederick, U.S.A. The human cancer cell colon: SW-620, prostrate, PC-3, DU-145 and acute lymphoblastic leukemia (MOLT-4) were grown and maintained in RPMI-1640 medium, pH 7.4, HEP-2. […]

Where only a bound is given, the exact number is not on record here.

In general, inhibition refers to how much of the control response was suppressed.

`C[C@H]1CC[C@@H]2[C@@H](OC(=O)C23CC(c2c4ccccc4cc4ccccc24)=NO3)[C@]2(C)C(=O)C=C[C@@]12O` (stereo partly shown) [Compound -17]: the inhibition at 5 µM is at least 70%.
